{"source": "patent US20180200257A1", "about": "“METHODS FOR THE TREATMENT OF INFLAMMATORY DISORDERS” (Galapagos NV, priority 2015, published 2018)", "test_system": "Subjects With Active Crohn's Disease With Evidence of Mucosal Ulceration", "experiment": "Study 3 - Creatinine levels", "type": "in vivo, human", "details": "for Study 3 - Creatinine Mean CFB / Study 3 - Creatinine Mean percentage CFB: 10 weeks results, 200 mg q.d.", "from_the_text": "Double-Blind, Randomized, Placebo-Controlled, Multi-Centre Study to Investigate the Efficacy and Safety of Compound 1 in Subjects With Active Crohn's Disease With Evidence of Mucosal Ulceration. This is a double-blind, randomized, placebo-controlled, multi-centre Phase 2 study to investigate the efficacy and safety of Compound 1 administered once daily for the treatment of active CD with evidence of mucosal ulceration. The pharmacokinetics (including a PK substudy) and pharmacodynamics of Compound 1 and metabolite in CD will also be characterised. A total of 180 eligible subjects will be randomized to receive Compound 1 or placebo in addition to their stable background treatment (eg, corticosteroids, aminosalicylates, or CD-related antibiotics). The study will consist of 2 parts, with total treatment duration of 20 weeks. Randomization in Part 1 will be stratified according the subject's previous anti-TNF exposure/response, CRP level at Screening, and oral corticosteroid use at visit Day −1. After the first 10 weeks of treatment in Part 1, patients will be re-randomized for Part 2 as shown in the diagram below and will be stratified according to the subject's clinical response, previous anti-TNF exposure/response, and oral corticosteroid use at visit Day -1. [table] Creatinine levels determination is available at Quest Diagnostics, Clinical Trials, Quest House, 125-135 Staines Road, Hounslow, Middlesex, TW3 3JB, United Kingdom under Catalogue n# 82565. For Study 3, the data are obtained at BARC Europe, 3B,Industrie Park, Zwijnaarde, B-9052 Ghent, Belgium. The Enzymatic method is based on the determination of sarcosine after conversion of creatinine with the aid of creatininase, creatinase, and sarcosine oxidase. The liberated hydrogen peroxide reacts with 4-aminophenazone and HTIB to form a quinone imine chromogen. The reaction is catalyzed by peroxidase. The color intensity is directly proportional to concentration of creatinine present and can be measured photometrically.", "key": {"[1]": {"details": "200 mg q.d. continued to week 20 (N = 77), week 0"}, "[2]": {"details": "200 mg q.d. continued to week 20 (N = 77), week 2"}, "[3]": {"details": "200 mg q.d. continued to week 20 (N = 77), week 4"}, "[4]": {"details": "200 mg q.d. continued to week 20 (N = 77), week 6"}, "[5]": {"details": "200 mg q.d. continued to week 20 (N = 77), week 10"}, "[6]": {"details": "200 mg q.d. continued to week 20 (N = 77), week 12"}, "[7]": {"details": "200 mg q.d. continued to week 20 (N = 77), week 16"}, "[8]": {"details": "200 mg q.d. continued to week 20 (N = 77), week 20"}, "[9]": {"details": "200 mg q.d. week 0 to 10, to 100 mg q.d. week 10 to 20 (N = 30), week 0"}, "[10]": {"details": "200 mg q.d. week 0 to 10, to 100 mg q.d. week 10 to 20 (N = 30), week 2"}, "[11]": {"details": "200 mg q.d. week 0 to 10, to 100 mg q.d. week 10 to 20 (N = 30), week 4"}, "[12]": {"details": "200 mg q.d. week 0 to 10, to 100 mg q.d. week 10 to 20 (N = 30), week 6"}, "[13]": {"details": "200 mg q.d. week 0 to 10, to 100 mg q.d. week 10 to 20 (N = 30), week 10"}, "[14]": {"details": "200 mg q.d. week 0 to 10, to 100 mg q.d. week 10 to 20 (N = 30), week 12"}, "[15]": {"details": "200 mg q.d. week 0 to 10, to 100 mg q.d. week 10 to 20 (N = 30), week 16"}, "[16]": {"details": "200 mg q.d. week 0 to 10, to 100 mg q.d. week 10 to 20 (N = 30), week 20"}, "[17]": {"details": "200 mg q.d. week 0 to 10, to placebo week 10 to 20 (N = 23), week 0"}, "[18]": {"details": "200 mg q.d. week 0 to 10, to placebo week 10 to 20 (N = 23), week 2"}, "[19]": {"details": "200 mg q.d. week 0 to 10, to placebo week 10 to 20 (N = 23), week 4"}, "[20]": {"details": "200 mg q.d. week 0 to 10, to placebo week 10 to 20 (N = 23), week 6"}, "[21]": {"details": "200 mg q.d. week 0 to 10, to placebo week 10 to 20 (N = 23), week 10"}, "[22]": {"details": "200 mg q.d. week 0 to 10, to placebo week 10 to 20 (N = 23), week 12"}, "[23]": {"details": "200 mg q.d. week 0 to 10, to placebo week 10 to 20 (N = 23), week 16"}, "[24]": {"details": "200 mg q.d. week 0 to 10, to placebo week 10 to 20 (N = 23), week 20"}, "[25]": {"details": "placebo week 0 to 10, to 100 mg q.d. week 10 to 20 (N = 22), week 12"}, "[26]": {"details": "placebo week 0 to 10, to 100 mg q.d. week 10 to 20 (N = 22), week 16"}, "[27]": {"details": "placebo week 0 to 10, to 100 mg q.d. week 10 to 20 (N = 22), week 20"}}, "data": [{"smiles": "O=C(Nc1nc2cccc(-c3ccc(CN4CCS(=O)(=O)CC4)cc3)n2n1)C1CC1", "note": "[Compound 1, cyclopropanecarboxylic acid {5-[4-(1,1-dioxo-thiomorpholin-4-ylmethyl)-phenyl]-[1,2,4]triazolo[1,5-a]pyridin-2-yl}-amide]", "values": [{"measurement": "Creatinine Mean CFB", "setting": "[1]", "result": 0.0, "unit": "µmol/L"}, {"measurement": "Creatinine Mean percentage CFB", "setting": "[1]", "result": 0.0, "unit": "%"}, {"measurement": "Creatinine Mean CFB", "setting": "[2]", "result": 2.22, "unit": "µmol/L"}, {"measurement": "Creatinine Mean percentage CFB", "setting": "[2]", "result": 4.13, "unit": "%"}, {"measurement": "Creatinine Mean CFB", "setting": "[3]", "result": 3.93, "unit": "µmol/L"}, {"measurement": "Creatinine Mean percentage CFB", "setting": "[3]", "result": 6.08, "unit": "%"}, {"measurement": "Creatinine Mean CFB", "setting": "[4]", "result": 2.51, "unit": "µmol/L"}, {"measurement": "Creatinine Mean percentage CFB", "setting": "[4]", "result": 4.44, "unit": "%"}, {"measurement": "Creatinine Mean CFB", "setting": "[5]", "result": 6.00, "unit": "µmol/L"}, {"measurement": "Creatinine Mean percentage CFB", "setting": "[5]", "result": 9.34, "unit": "%"}, {"measurement": "Creatinine Mean CFB", "setting": "[6]", "result": 4.02, "unit": "µmol/L"}, {"measurement": "Creatinine Mean percentage CFB", "setting": "[6]", "result": 7.10, "unit": "%"}, {"measurement": "Creatinine Mean CFB", "setting": "[7]", "result": 1.81, "unit": "µmol/L"}, {"measurement": "Creatinine Mean percentage CFB", "setting": "[7]", "result": 3.62, "unit": "%"}, {"measurement": "Creatinine Mean CFB", "setting": "[8]", "result": 3.20, "unit": "µmol/L"}, {"measurement": "Creatinine Mean percentage CFB", "setting": "[8]", "result": 5.43, "unit": "%"}, {"measurement": "Creatinine Mean CFB", "setting": "[9]", "result": 0.0, "unit": "µmol/L"}, {"measurement": "Creatinine Mean percentage CFB", "setting": "[9]", "result": 0.0, "unit": "%"}, {"measurement": "Creatinine Mean CFB", "setting": "[10]", "result": 3.36, "unit": "µmol/L"}, {"measurement": "Creatinine Mean percentage CFB", "setting": "[10]", "result": 5.77, "unit": "%"}, {"measurement": "Creatinine Mean CFB", "setting": "[11]", "result": 4.98, "unit": "µmol/L"}, {"measurement": "Creatinine Mean percentage CFB", "setting": "[11]", "result": 8.03, "unit": "%"}, {"measurement": "Creatinine Mean CFB", "setting": "[12]", "result": 4.00, "unit": "µmol/L"}, {"measurement": "Creatinine Mean percentage CFB", "setting": "[12]", "result": 6.37, "unit": "%"}, {"measurement": "Creatinine Mean CFB", "setting": "[13]", "result": 6.48, "unit": "µmol/L"}, {"measurement": "Creatinine Mean percentage CFB", "setting": "[13]", "result": 11.55, "unit": "%"}, {"measurement": "Creatinine Mean CFB", "setting": "[14]", "result": 2.92, "unit": "µmol/L"}, {"measurement": "Creatinine Mean percentage CFB", "setting": "[14]", "result": 6.01, "unit": "%"}, {"measurement": "Creatinine Mean CFB", "setting": "[15]", "result": 4.89, "unit": "µmol/L"}, {"measurement": "Creatinine Mean percentage CFB", "setting": "[15]", "result": 8.86, "unit": "%"}, {"measurement": "Creatinine Mean CFB", "setting": "[16]", "result": 3.43, "unit": "µmol/L"}, {"measurement": "Creatinine Mean percentage CFB", "setting": "[16]", "result": 6.19, "unit": "%"}, {"measurement": "Creatinine Mean CFB", "setting": "[17]", "result": 0.0, "unit": "µmol/L"}, {"measurement": "Creatinine Mean percentage CFB", "setting": "[17]", "result": 0.0, "unit": "%"}, {"measurement": "Creatinine Mean CFB", "setting": "[18]", "result": 1.95, "unit": "µmol/L"}, {"measurement": "Creatinine Mean percentage CFB", "setting": "[18]", "result": 3.55, "unit": "%"}, {"measurement": "Creatinine Mean CFB", "setting": "[19]", "result": 3.83, "unit": "µmol/L"}, {"measurement": "Creatinine Mean percentage CFB", "setting": "[19]", "result": 6.09, "unit": "%"}, {"measurement": "Creatinine Mean CFB", "setting": "[20]", "result": 2.15, "unit": "µmol/L"}, {"measurement": "Creatinine Mean percentage CFB", "setting": "[20]", "result": 3.92, "unit": "%"}, {"measurement": "Creatinine Mean CFB", "setting": "[21]", "result": 5.88, "unit": "µmol/L"}, {"measurement": "Creatinine Mean percentage CFB", "setting": "[21]", "result": 10.23, "unit": "%"}, {"measurement": "Creatinine Mean CFB", "setting": "[22]", "result": 1.84, "unit": "µmol/L"}, {"measurement": "Creatinine Mean percentage CFB", "setting": "[22]", "result": 3.14, "unit": "%"}, {"measurement": "Creatinine Mean CFB", "setting": "[23]", "result": 0.47, "unit": "µmol/L"}, {"measurement": "Creatinine Mean percentage CFB", "setting": "[23]", "result": 1.93, "unit": "%"}, {"measurement": "Creatinine Mean CFB", "setting": "[24]", "result": -0.26, "unit": "µmol/L"}, {"measurement": "Creatinine Mean percentage CFB", "setting": "[24]", "result": 0.68, "unit": "%"}, {"measurement": "Study 3 - Creatinine Mean CFB", "setting": "week 2", "result": 2.44, "unit": "µM"}, {"measurement": "Study 3 - Creatinine Mean percentage CFB", "setting": "week 2", "result": 4.41, "unit": "%"}, {"measurement": "Study 3 - Creatinine Mean CFB", "setting": "week 4", "result": 4.16, "unit": "µM"}, {"measurement": "Study 3 - Creatinine Mean percentage CFB", "setting": "week 4", "result": 6.55, "unit": "%"}, {"measurement": "Study 3 - Creatinine Mean CFB", "setting": "week 6", "result": 2.81, "unit": "µM"}, {"measurement": "Study 3 - Creatinine Mean percentage CFB", "setting": "week 6", "result": 4.82, "unit": "%"}, {"measurement": "Study 3 - Creatinine Mean CFB", "setting": "week 10", "result": 6.08, "unit": "µM"}, {"measurement": "Study 3 - Creatinine Mean percentage CFB", "setting": "week 10", "result": 10.05, "unit": "%"}, {"measurement": "Creatinine Mean CFB", "setting": "[25]", "result": 3.09, "unit": "µmol/L"}, {"measurement": "Creatinine Mean percentage CFB", "setting": "[25]", "result": 4.87, "unit": "%"}, {"measurement": "Creatinine Mean CFB", "setting": "[26]", "result": 4.33, "unit": "µmol/L"}, {"measurement": "Creatinine Mean percentage CFB", "setting": "[26]", "result": 6.52, "unit": "%"}, {"measurement": "Creatinine Mean CFB", "setting": "[27]", "result": 3.11, "unit": "µmol/L"}, {"measurement": "Creatinine Mean percentage CFB", "setting": "[27]", "result": 4.31, "unit": "%"}]}]}
